Experimental findings from patent US20260166159A1, “KRAS G12D DEGRADATION AGENT, AND PREPARATION METHOD AND USE THEREFOR” (LEADINGTAC PHARMACEUTICAL (SHAOXING) CO., LTD., priority 2022, published 2026) are described below.

Some results are limits rather than exact numbers.

The subject of assay [1] is KRAS G12D mutant human gastric cancer cell AGS. As to the kind of experiment: 3D cell proliferation inhibition assay, AGS. Type of assay: cell-based. The settings on record: 168 h, 7 days, CTG, numeric values. An excerpt: The inhibitory effects of the compounds on 3D cell proliferation were investigated on KRAS G12D mutant human lung cancer cell A427, KRAS G12D mutant human gastric cancer cell AGS, KRAS G12D mutant human metastatic pancreatic cancer cell AsPc-1, KRAS G12D mutant human pancreatic cancer cell Panc 04.03, KRAS G12D mutant human pancreatic cancer cell HPAC, KRAS G12V mutant human lung squamous cell carcinoma cell SW900, and KRAS WT human gastric cancer cell MKN1. The specific procedures were as follows:
10 μL of each compound solution diluted in a gradient was added to corresponding wells of a 96-well low-adsorption microplate (PerkinElmer), so that the final concentrations of the test compounds in the reaction system were in a range of 10000-0.026 nM. The final concentration of DMSO was 0.2%. Then 90 µL of cells were correspondingly seeded into each well to achieve a cell density of 5×10^2 cells/well (the cell density of SW900 was 5×10^1 cells/well, and the cell density of MKN1 was 1×10^3 cells/well). In addition to test wells for the test compounds, both a DMSO control well and a medium control well were set, with the DMSO control well containing DMSO and cells and the medium well containing only a medium. After the sample loading, the 96-well low-adsorption microplate was incubated in an incubator at 37° C. with 5% carbon dioxide for 7 days. After 7 days, the microplate was taken out, and 100 μL of CTG reagent (Promega) was added to each well. The plate was incubated at room temperature for 60 min and read on a microplate reader EnVision by the chemiluminescence program. The inhibition rates of the compounds at each concentration were calculated using the formula for the percentage inhibition of cell proliferation: inhibition rate %=(mean value of DMSO control group−single concentration reading value of compound)/(mean value of DMSO control group−mean value of medium control group)×100. Then non-linear curve fittings for logarithmic concentration-inhibition rate were performed by GraphPad Prism 8, and the IC50 values of the compounds were obtained (Table 5).

The target of a further assay is T1, KRAS-G12D (Homo sapiens, UniProt P01116, G12D).
T1 construct: endogenous in cells; host or cells: A-427 (ATCC), AGS, AsPc-1, Panc 04.03
As to the kind of experiment: KRAS-G12D degradation assay (Western Blot), A-427 cells. The assay is classed as cell-based. The settings on record: A427 cells, 24 h; for Dmax: A-427. The procedure:
The degradation effects of the compounds on KRAS-G12D were investigated on KRAS G12D mutant human lung cancer cell A-427 (ATCC), KRAS G12D mutant human gastric cancer cell AGS, KRAS G12D mutant human metastatic pancreatic cancer cell AsPc-1, and KRAS G12D mutant human pancreatic adenocarcinoma cell Panc 04.03. The specific procedures were as follows: 0.95 mL of cells were seeded into each well of a 24-well cell culture plate to achieve a cell density of 5×10^5 cells/well; and the cell plate was incubated in an incubator at 37° C. with 5% CO2 overnight. Then 50 μL of the compound solution after dilution was added to each of the wells with the corresponding cells, so that the final concentration of the compound was in a range of 0.03-3000 nM. The final concentration of DMSO was 0.25%. After the compounds were added, the cell plate was incubated in the incubator at 37° C. with 5% CO2 for 24 h. The culture medium in the 24-well cell culture plate was removed, and the plate was washed twice with 1×PBS (KeyGEN). 120 μL of RIPA (strong) lysis buffer (Beyotime) supplemented with 1 mM phenylmethylsulfonyl fluoride, a protease inhibitor mixture (Beyotime), and a protease phosphatase inhibitor mixture (Beyotime) was added to lyse adherent A-427 cells at the bottom of the cell culture plate. After the plate was left to stand on ice for 30 min, the protein lysate in each well was transferred to a 1.5 mL centrifuge tube and centrifuged at 15000 g for 20 min at 4° C. The cell lysate supernatants after centrifugation were cryopreserved in a refrigerator at −80° C. for later use.
After the samples of the cell lysate supernatants that had been prepared were thawed from the refrigerator at −80° C., the total protein concentrations of the cell lysates were determined using a BCA protein quantification kit (Tiangen). The total protein concentrations of the samples were then adjusted to 0.5 μg/μL with PBS and 5×SDS-PAGE protein loading buffer (Beyotime), and the samples were incubated in a water bath at 100° C. for 15 min. The samples were then incubated in an ice bath for 5 min and centrifuged at 14000 g for 1 min at 4° C., and the supernatants were mixed well as loading samples for the Western Blot assay. The samples were loaded into wells of a 10% precast gel (KeyGEN) with a loading volume of 10 μL (total protein: 5 μg), a sufficient Tris-MOPS-SDS running buffer (Adamas) was added, and then electrophoresis was performed at a constant voltage of 120 V for 55 min. After the electrophoresis, the proteins on the gel were transferred to PVDF membranes at a constant current of 250 mA for 55 min. After the membrane transfer, the PVDF membranes were incubated in 1× Quick Block blocking buffer (Beyotime) at room temperature for 30 min. After the blocking, the PVDF membranes were separately incubated at 4° C. overnight with the KRAS antibody (Abcam) diluted in a ratio of 1:1000 and the […] antibody (Abcam) diluted in a ratio of 1:2000 in 5% BSA as the diluent, and then washed with 1×TBST buffer (2.4 g of Tris, 8.8 g of NaCl, 1.5 mL of Tween 20, with pH adjusted to 7.4, with the volume brought to 1 L) 3 times for 10 min/time. The membranes were incubated with a secondary antibody (Abcam) diluted in 5% BSA at room temperature for 2 h, and then washed with 1×TBST buffer 3 times for 10 min/time. Finally, the membranes were incubated with Clarity Western ECL Substrate (BIO-RAD) for 5 min for luminescence and color development, and a ChemiScope 6200 Touch chemiluminescence imaging system (Clinx) was used for color development and protein mapping. Gray value analysis of the protein maps was performed using the chemiluminescence analysis software (Clinx). The gray correction value for each sample was calculated using the formula: gray correction value=(gray value of target protein/gray value of corresponding internal reference)×10^3. Then degradation rates were calculated by comparison with the gray correction value of the control group. […]
(In western blotting, separated proteins are transferred to a membrane and probed.)

T1 sequence (P01116 1-188 isoform P01116-2 G12D): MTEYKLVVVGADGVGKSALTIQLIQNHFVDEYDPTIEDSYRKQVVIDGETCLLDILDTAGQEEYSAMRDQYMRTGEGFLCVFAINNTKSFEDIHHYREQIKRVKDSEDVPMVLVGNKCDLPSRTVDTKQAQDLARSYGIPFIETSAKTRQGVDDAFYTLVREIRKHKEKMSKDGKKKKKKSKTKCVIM

On to `C#Cc1c(F)ccc2cc(O)cc(-c3ncc4c(N5CC6CCC(C5)N6)nc(OCC5CCN(CCCC6CCC7(CC6)CCN(C(=O)c6ccc(Cl)c(N8CCC(=O)NC8=O)c6)CC7)CC5)nc4c3F)c12` [Example 68, 1-(5-(9-(3-(4-(((4-(3,8-diazabicyclo[3.2.1]octan-3-yl)-7-(8-ethynyl-7-fluoro-3-hydroxynaphthalen-1-yl)-8-fluoropyrido[4,3-d]pyrimidin-2-yl)oxy)methyl)piperidin-1-yl)propyl)-3-azaspiro[5.5]undecane-3-carbonyl)-2-chlorophenyl)dihydropyrimidine-2,4(1H,3H)-dione], for which, in assay [1], the IC50 (in general, the concentration that inhibits the measured activity by half) is 24.8 nM. With `C#Cc1c(F)ccc2cc(O)cc(-c3ncc4c(N5CC6CCC(C5)N6)nc(OCC5(CN6CCN(CCC7CC8(CCN(C(=O)c9ccc(OC)c(N%10CCC(=O)NC%10=O)c9)CC8)C7)CC6)CC5)nc4c3F)c12` [Example 43, 1-(5-(2-(2-(4-((1-(((4-(3,8-diazabicyclo[3.2.1]octan-3-yl)-7-(8-ethynyl-7-fluoro-3-hydroxynaphthalen-1-yl)-8-fluoropyrido[4,3-d]pyrimidin-2-yl)oxy)methyl)cyclopropyl)methyl)piperazin-1-yl)ethyl)-7-azaspiro[3.5]nonane-7-carbonyl)-2-methoxyphenyl)dihydropyrimidine-2,4(1H,3H)-dione], on KRAS-G12D (class symbols), the half-maximal degradation concentration (DC50) (in general, the concentration at which degradation of the target reaches its halfway point) is no more than 50 nM and the Dmax (in general, the greatest extent of degradation seen) was in the range of 50 to 80%.

With `C#Cc1c(F)ccc2cc(O)cc(-c3ncc4c(N5CC6CCC(C5)N6)nc(OCC5(CN6CC7CC(C6)N7CC6CCC7(CC6)CCN(C(=O)c6ccc(Cl)c(N8CCC(=O)NC8=O)c6)CC7)CC5)nc4c3F)c12` [Example 87, 1-(5-(9-((3-((1-(((4-(3,8-diazabicyclo[3.2.1]octan-3-yl)-7-(8-ethynyl-7-fluoro-3-hydroxynaphthalen-1-yl)-8-fluoropyrido[4,3-d]pyrimidin-2-yl)oxy)methyl)cyclopropyl)methyl)-3,6-diazabicyclo[3.1.1]heptan-6-yl)methyl)-3-azaspiro[5.5]undecane-3-carbonyl)-2-chlorophenyl)dihydropyrimidine-2,4(1H,3H)-dione], inhibition in assay [1] was half-maximal at 606 nM (IC50). Regarding `C#Cc1c(F)ccc2cc(O)cc(-c3ncc4c(N5CC6CCC(C5)N6)nc(OCC5(CN6CC(CCN7CCC8(CC7)CCN(C(=O)c7ccc(OC)c(N9CCC(=O)NC9=O)c7)CC8)C6)CC5)nc4c3F)c12` [Example 41, 1-(5-(9-(2-(1-((1-(((4-(3,8-diazabicyclo[3.2.1]octan-3-yl)-7-(8-ethynyl-7-fluoro-3-hydroxynaphthalen-1-yl)-8-fluoropyrido[4,3-d]pyrimidin-2-yl)oxy)methyl)cyclopropyl)methyl)azetidin-3-yl)ethyl)-3,9-diazaspiro[5.5]undecane-3-carbonyl)-2-methoxyphenyl)dihydropyrimidine-2,4(1H,3H)-dione], on KRAS-G12D (class symbols), the DC50 was 1000 to 10000 nM.

Turning to `C#Cc1c(F)ccc2cc(O)cc(-c3ncc4c(N5CC6CCC(C5)N6)nc(NCC5(CN6CCN(CC7CCC8(CC7)CCN(C(=O)c7ccc(Cl)c(N9CCC(=O)NC9=O)c7)CC8)CC6)CC5)nc4c3F)c12` [Example 46, 1-(5-(9-((4-((1-(((4-(3,8-diazabicyclo[3.2.1]octan-3-yl)-7-(8-ethynyl-7-fluoro-3-hydroxynaphthalen-1-yl)-8-fluoropyrido[4,3-d]pyrimidin-2-yl)amino)methyl)cyclopropyl)methyl)piperazin-1-yl)methyl)-3-azaspiro[5.5]undecane-3-carbonyl)-2-chlorophenyl)dihydropyrimidine-2,4(1H,3H)-dione], on KRAS-G12D (class symbols), the DC50 was no more than 50 nM and the Dmax lay within 80 to 100%. `C#Cc1c(F)ccc2cc(O)cc(-c3ncc4c(N5C[C@@H]6C[C@H]5CN6)nc(OCC5(CN6CCN(CC7CCC8(CC7)CCN(C(=O)c7ccc(C)c(N9CCC(=O)NC9=O)c7)CC8)CC6)CC5)nc4c3F)c12` [Example 86, 1-(5-(9-((4-((1-(((4-((1S,4S)-2,5-diazabicyclo[2.2.1]heptan-2-yl)-7-(8-ethynyl-7-fluoro-3-hydroxynaphthalen-1-yl)-8-fluoropyrido[4,3-d]pyrimidin-2-yl)oxy)methyl)cyclopropyl)methyl)piperazin-1-yl)methyl)-3-azaspiro[5.5]undecane-3-carbonyl)-2-methylphenyl)dihydropyrimidine-2,4(1H,3H)-dione] showed an IC50 in assay [1] of 97.5 nM. On KRAS-G12D (numeric values), `CCc1cccc2cc(O)cc(-c3ccc4c(N5CC6CCC(C5)N6)nc(OCC5(CN6CCN(CC7CCC8(CC7)CCN(C(=O)c7ccc(OC)c(N9CCC(=O)NC9=O)c7)CC8)CC6)CC5)nc4c3F)c12` [Example 83, 1-(5-(9-((4-((1-(((4-(3,8-diazabicyclo[3.2.1]octan-3-yl)-7-(8-ethyl-3-hydroxynaphthalen-1-yl)-8-fluoroquinazolin-2-yl)oxy)methyl)cyclopropyl)methyl)piperazin-1-yl)methyl)-3-azaspiro[5.5]undecane-3-carbonyl)-2-methoxyphenyl)dihydropyrimidine-2,4(1H,3H)-dione] registered a DC50 of 33.9 nM and a Dmax of 87.2%.

At KRAS-G12D (numeric values), `CCc1cccc2cc(O)cc(-c3ncc4c(N5CCC6CCC(C5)N6)nc(OCC5(CN6CCN(CC7CCC8(CC7)CCN(C(=O)c7ccc(OC)c(N9CCC(=O)NC9=O)c7)CC8)CC6)CC5)nc4c3F)c12` (stereo not drawn) [Example 88, 1-(5-(9-((4-((1-(((4-(3,9-diazabicyclo[4.2.1]nonan-3-yl)-7-(8-ethyl-3-hydroxynaphthalen-1-yl)-8-fluoropyrido[4,3-d]pyrimidin-2-yl)oxy)methyl)cyclopropyl)methyl)piperazin-1-yl)methyl)-3-azaspiro[5.5]undecane-3-carbonyl)-2-methoxyphenyl)dihydropyrimidine-2,4(1H,3H)-dione] came in with a DC50 of 0.65 nM and a Dmax of 89.5%.
